Among the test systems are A498; BT-549; HCC 2998; HCT-116; HL-60; Hs-578T; IGROV-1; K562; MDA-MB-231; MDA-MB-435; NCI-H23; OVCAR-4; PC-3; SK-MEL-2; T47D; UACC-257; ACHN; SK-MEL-28; SK-OV-3.
What all share (experiment): NCI-60 cell line screen, 48 h

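Protocol summary: plate cells (96-well), add compound at 5 concentrations, incubate 48 h, interpolate endpoints linearly. The concentration for 50% growth inhibition is given as GI50.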 Calls of active or inactive are those of the source. Cut-off read from the data, not from the text of the source: active = GI50 up to about 1.1 µM and inactive = higher.

For the molecule `Cc1ccnc2c1ccc1nc3ccccc3n12`, the GI50 is > 100 µM (inactive) in the assay on A498; 63.5 µM (inactive) in the assay with BT-549; > 100 µM (inactive) with HCC 2998; 28.1 µM (inactive) with HCT-116; 85.3 µM (inactive) with HL-60; 25.8 µM (inactive) with Hs-578T. The GI50 is 25.5 µM (inactive) in the assay on IGROV-1; > 100 µM (inactive) in the assay with K562; 54.7 µM (inactive) with MDA-MB-231; > 100 µM (inactive) in the assay with MDA-MB-435; > 100 µM (inactive) in the assay with NCI-H23; 37.8 µM (inactive) in the assay on OVCAR-4. Besides, the GI50 was > 100 µM (inactive) with PC-3, > 100 µM (inactive) with SK-MEL-2, 18.5 µM (inactive) with T47D and > 100 µM (inactive) with UACC-257.

As for `COC(=O)C1C=CN(N(C)C)C2=C1C(=O)c1c(O)cccc1C2=O` (stereo unspecified), the GI50 in the assay with A498 was 2.81 µM (inactive); with ACHN, 3.37 µM (inactive); in the assay with BT-549 it was 1.99 µM (inactive); in the assay on HCC 2998, 1.93 µM (inactive); with HCT-116, 1.92 µM (inactive); in the assay on Hs-578T it was 2.69 µM (inactive). For the same molecule, the GI50 in the assay on IGROV-1 was 2.1 µM (inactive); with K562 it was 3.09 µM (inactive); in the assay with MDA-MB-231, 1.89 µM (inactive); with MDA-MB-435, 0.429 µM (active); in the assay on NCI-H23 it was 1.63 µM (inactive); in the assay with OVCAR-4, 2.17 µM (inactive). Also, the GI50 in the assay with PC-3 was 2.96 µM (inactive); with SK-MEL-28 it was 1.94 µM (inactive); in the assay on SK-MEL-2 it was 2.31 µM (inactive); in the assay on SK-OV-3 it was 6.19 µM (inactive); in the assay on T47D it was 2.32 µM (inactive); in the assay with UACC-257, 1.41 µM (inactive).

For `Fc1ccc(C(OCCN2CCC3CCC(C2)N3C/C=C/c2ccco2)c2ccc(F)cc2)cc1` (stereo unspecified), the GI50 in the assay on A498 was 11.2 µM (inactive); in the assay with ACHN, 12.7 µM (inactive); with BT-549, 12.8 µM (inactive); with HCC 2998 it was 4.94 µM (inactive); with HCT-116 it was 4.91 µM (inactive); in the assay with Hs-578T it was 14.7 µM (inactive). Further, the GI50 was 6.5 µM (inactive) with IGROV-1; 3.21 µM (inactive) in the assay on K562; 11.1 µM (inactive) in the assay on MDA-MB-231; 10.7 µM (inactive) in the assay on MDA-MB-435; 11.3 µM (inactive) in the assay with NCI-H23; 10.2 µM (inactive) in the assay on OVCAR-4. Moreover, the GI50 in the assay with PC-3 was 8.2 µM (inactive); with SK-MEL-28 it was 6.46 µM (inactive); in the assay with SK-MEL-2 it was 12.3 µM (inactive); with SK-OV-3, 14.6 µM (inactive); with T47D, 5.14 µM (inactive); with UACC-257, 4.44 µM (inactive).

With `O=C1Nc2cccc(Cl)c2/C1=C\c1c(-c2ccccc2)nc2n1CCS2`, the GI50 was 20.4 µM (inactive) with A498; 16.4 µM (inactive) in the assay on ACHN; 22.1 µM (inactive) with BT-549; 21.3 µM (inactive) with HCC 2998; 20.2 µM (inactive) with HCT-116; 16.3 µM (inactive) with HL-60. The GI50 was 18.9 µM (inactive) with Hs-578T; 12.8 µM (inactive) in the assay with IGROV-1; 17.2 µM (inactive) in the assay with K562; 20.7 µM (inactive) in the assay on MDA-MB-231; 18.2 µM (inactive) in the assay on MDA-MB-435; 23.3 µM (inactive) in the assay with NCI-H23. Moreover, the GI50 with PC-3 is 18.6 µM (inactive); in the assay on SK-MEL-28, 21.2 µM (inactive); in the assay on SK-MEL-2 it was 20.3 µM (inactive); with SK-OV-3, 24.4 µM (inactive); with T47D, 17.5 µM (inactive); in the assay with UACC-257, 21.4 µM (inactive).

Regarding `CCc1c(Cc2cccc3ccccc23)n2c(nc1=O)SCC2OCCO` (stereo unspecified), the GI50 with A498 was > 100 µM (inactive); in the assay with ACHN, > 100 µM (inactive); in the assay with BT-549, 41.7 µM (inactive); in the assay on HCC 2998 it was 64.1 µM (inactive); with HCT-116 it was > 100 µM (inactive); in the assay on HL-60, 36.9 µM (inactive). For the same molecule, the GI50 in the assay with Hs-578T was > 100 µM (inactive); with IGROV-1, 24.7 µM (inactive); with K562 it was 30.4 µM (inactive); with MDA-MB-231, > 100 µM (inactive); in the assay on MDA-MB-435, 18.2 µM (inactive); in the assay on NCI-H23, 42.8 µM (inactive). Moreover, the GI50 in the assay on OVCAR-4 was 41.5 µM (inactive); in the assay with PC-3 it was 52.6 µM (inactive); in the assay on SK-MEL-28 it was > 100 µM (inactive); in the assay on SK-MEL-2, > 100 µM (inactive); in the assay on T47D it was 31 µM (inactive); in the assay on UACC-257, > 100 µM (inactive).

For the molecule `CCCCOC(=O)c1cc(C(=CCC[C@H]2CC[C@@]3(C)[C@@H](CC[C@@H]4[C@@H]3CC[C@]3(C)[C@@H](C(C)CCCC(C)C)CC[C@@H]43)C2)c2cc(Cl)c(O)c(C(=O)OCCCC)c2)cc(Cl)c1O` (stereo partly specified), the GI50 in the assay on A498, in the assay on BT-549, with HCC 2998, in the assay on HCT-116, with HL-60 and with Hs-578T was > 50 µM (inactive) throughout. The GI50 in the assay with IGROV-1 is > 50 µM (inactive); in the assay with K562, > 5 µM (inactive); with MDA-MB-231 it was > 50 µM (inactive); in the assay with MDA-MB-435, > 50 µM (inactive); in the assay with NCI-H23, > 50 µM (inactive); with OVCAR-4, > 50 µM (inactive). Also, the GI50 with PC-3, with SK-MEL-2 and in the assay on T47D was > 50 µM (inactive) throughout.

For `C=C(c1ccccc1)C1ON(C)CCc2cc(OC)c(OC)cc21` (stereo unspecified), the GI50 in the assay with A498 was > 100 µM (inactive); in the assay with ACHN, 84.7 µM (inactive); in the assay with BT-549, > 100 µM (inactive); in the assay on HCC 2998, > 100 µM (inactive); in the assay with HCT-116 it was 43.4 µM (inactive); in the assay on HL-60, > 100 µM (inactive). The GI50 with Hs-578T was 18.3 µM (inactive); in the assay with IGROV-1, > 100 µM (inactive); in the assay on K562 it was 58.7 µM (inactive); with MDA-MB-231, 53.6 µM (inactive); in the assay on MDA-MB-435, 84.9 µM (inactive); with NCI-H23, 66.2 µM (inactive). The GI50 in the assay on PC-3 is > 100 µM (inactive); with SK-MEL-28, 45.1 µM (inactive); with SK-OV-3, > 100 µM (inactive); in the assay with T47D it was 37 µM (inactive); in the assay with UACC-257, 42.3 µM (inactive).

For `COC(=O)c1ccc(Oc2nc3ccc(C(F)(F)F)cc3nc2-c2ccccc2)cc1`, the GI50 in the assay with A498 was > 100 µM (inactive); in the assay on ACHN, 56.9 µM (inactive); in the assay with BT-549, > 100 µM (inactive); in the assay with HCC 2998 it was > 100 µM (inactive); in the assay with HCT-116, > 100 µM (inactive); in the assay with HL-60, > 100 µM (inactive). In addition, the GI50 was > 100 µM (inactive) with Hs-578T; > 100 µM (inactive) in the assay on IGROV-1; 60.8 µM (inactive) in the assay with K562; > 100 µM (inactive) with MDA-MB-231; > 100 µM (inactive) with MDA-MB-435; > 100 µM (inactive) in the assay with NCI-H23. In addition, the GI50 was > 100 µM (inactive) with OVCAR-4; > 100 µM (inactive) with PC-3; > 100 µM (inactive) with SK-MEL-28; > 100 µM (inactive) in the assay with SK-OV-3; 56.2 µM (inactive) in the assay with T47D; > 100 µM (inactive) in the assay with UACC-257.

For the molecule `CNC(=O)c1nn[nH]c1Sc1c([N+](=O)[O-])ncn1C`, the GI50 with A498, with ACHN, with BT-549, in the assay on HCC 2998, in the assay on HCT-116 and in the assay with Hs-578T was > 100 µM (inactive) in each case. Also, the GI50 with IGROV-1, in the assay with K562, with MDA-MB-231, in the assay on MDA-MB-435, with NCI-H23 and in the assay with OVCAR-4 was > 100 µM (inactive) in each case. The GI50 in the assay on PC-3, in the assay on SK-MEL-28, with SK-MEL-2, in the assay with SK-OV-3, in the assay with T47D and in the assay with UACC-257 was > 100 µM (inactive) each time.

Regarding `O=C(O)c1ccccc1NC(=S)c1ccccc1`, the GI50 was 61.9 µM (inactive) in the assay with A498; 24.7 µM (inactive) in the assay on ACHN; 33 µM (inactive) with BT-549; < 0.01 µM (active) in the assay with HCC 2998; 48.3 µM (inactive) in the assay on HCT-116; 34 µM (inactive) in the assay on HL-60. The GI50 in the assay on Hs-578T was 53.7 µM (inactive); with IGROV-1 it was 25.1 µM (inactive); with K562, 39.2 µM (inactive); with MDA-MB-231, 60.5 µM (inactive); in the assay with MDA-MB-435, 52.8 µM (inactive); with NCI-H23 it was 80.9 µM (inactive). Also, the GI50 with OVCAR-4 was 0.0592 µM (active); in the assay on PC-3 it was 34.5 µM (inactive); with SK-OV-3, 76.4 µM (inactive); in the assay with T47D, 34.2 µM (inactive); in the assay with UACC-257 it was 29.7 µM (inactive).

As to `CC#CC(O)(C(=O)OCCCN(C)C)C1CCCCC1` (stereo unspecified), the GI50 in the assay on A498, in the assay with ACHN, with BT-549, in the assay with HCC 2998, with HCT-116 and in the assay on HL-60 was > 100 µM (inactive) each time. Further, the GI50 in the assay on Hs-578T, in the assay on IGROV-1, in the assay with K562, with MDA-MB-231, with MDA-MB-435 and with NCI-H23 was > 100 µM (inactive) each time. For the same molecule, the GI50 with PC-3, in the assay on SK-MEL-28, in the assay with SK-MEL-2, in the assay with SK-OV-3, in the assay on T47D and with UACC-257 was > 100 µM (inactive) each time.

For the origin of these results see ChEMBL document CHEMBL1201862, “PubChem BioAssay data set” (2004).
